These results are taken from patent US20120238630A1, “COMPOSITIONS COMPRISING NONSTEROIDAL ANTI - INFLAMMATORY DRUGS” (Alfa Wassermann S.P.A., priority 2009, published 2012).

The data set is described as follows: Bioavailability / systemic FP plasma concentration after oral nebulization of the liquid composition containing FP. The class given is in vivo, human. As for the experimental part: The solutions have been administered to 26 healthy volunteers, among whom 16 were males and 10 females, aged between 18 and 55.
The healthy volunteers received the pharmaceutical composition prepared according to Example 1 in two 200 μl nebulizations three times a day, for a seven-day period, then a single administration on the eighth day.
[…]
During the period of administration of the composition object of the present invention, blood samples were taken before each administration and on days 1, 4, 6, 7 and 8.
The plasma concentration was determined for each patient before the first dose and, successively, in the morning of the days 1, 4, 6, 7 and 8 and after 1, 2, 3, 4, 6, 8, 10, 12, 16 and 24 hours since the last treatment.
Each sample was moved into a test tube containing heparin and centrifuged, and the plasma was divided into 500 μl aliquots and freezed at −80° C.
The following parameters were determined:
Tmax: time wherein Cmax is reached.
AUC: area subtended to the concentration-time curve calculated by means of the linear trapezoidal rule.

[1] abbreviates: after the last administration (day 8).

Regarding “2-(2-fluoro-4-phenyl-phenyl) propionic acid [FP]”, the “FP average plasma concentrations” value reads like this: (1 hour after the last administration (day 8)) 0.182 µg/mL; (2 hours after the last administration (day 8)) 0.144 µg/mL; (3 hours after the last administration (day 8)) 0.115 µg/mL; (4 hours after the last administration (day 8)) 0.096 µg/mL; (6 hours after the last administration (day 8)) 0.067 µg/mL; (8 hours after the last administration (day 8)) 0.045 µg/mL. The “FP average plasma concentrations” value by setting is: (10 hours after the last administration (day 8)) 0.029 µg/mL; (12 hours after the last administration (day 8)) 0.020 µg/mL; (16 hours after the last administration (day 8)) 0.008 µg/mL; (24 hours after the last administration (day 8)) 0.001 µg/mL; (day 1, time 0 (before the first dose), Example 1 composition, 26 healthy volunteers) 0.000 µg/mL; (day 4, time 0, two 200 μl nebulizations three times a day, Example 1 composition) 0.043 µg/mL. Further, the “FP average plasma concentrations” value came out at 0.042 µg/mL (day 6, time 0, two 200 μl nebulizations three times a day, Example 1 composition); 0.039 µg/mL (day 7, time 0, two 200 μl nebulizations three times a day, Example 1 composition); 0.040 µg/mL (day 8, time 0, after seven days of two 200 μl nebulizations three times a day, Example 1 composition). The FP systemic concentrations entry (after repeated oral nebulization, healthy volunteers) is recorded as “very low”. The same substance had an AUC0-inf. under setting [1] of 1140 ng·h/mL. Besides, the “AUC0-inf. higher than the AUC at the last point” value under setting [1] was “ca. 20%”. Moreover, the Cmax – broadly, the maximum level reached in the sampled fluid or tissue – (after the last administration (day 8), Example 1 composition nebulized in oral cavity, healthy volunteers) came out at 182 ± 50 ng/mL. Further, the Tmax – broadly, the time from dosing to the highest level – (after the last administration (day 8), Example 1 composition, healthy volunteers) worked out at 1 h. This substance also registered an AUC0-24 (after the last administration (day 8), linear trapezoidal rule) of 940 ng·h/mL. Also, under “oropharyngeal application versus literature oral data (Stalker 1991; Gonzalez-Younes 1991)”, the “amount absorbed, times lower than solutions of the same concentration administered by oral route” value is “about 10 times”. Further, for the setting “three times a day for seven days, plasma on days 1, 4, 6, 7 and 8”, the “FP accumulation in plasma after repeated administrations” value is given as “no FP accumulation”.
